# Laboratory results taken from patent US7842721B2, “Composition for treating cancer cells and synthetic method for the same” (Kaohsiung Medical University, priority 2007, dated 2010).
# Tests used:
# human cancer cell lines = test: in vitro cytotoxic activities against several human cancer lines (panel summary); assay type: cell-based; conditions: for cytotoxic activity against cancer cell lines (in words): especially Hep3B and MDA-MB-231
# Procedure: (§1) Human liver (HepG2 and Hep3B), breast (MCF-7 and MDA-MB-231), and lung (A549) cancer cell lines were propagated in RPMI-1640 medium supplement with 10% (v/v) FBS, 100 U/mL penicillin and 100 µg/mL streptomycin at 37° C. in a humidified atmosphere of 5% CO2 and 95% air. The culturing medium is changed every three days. Upon confluency, cells were subcultured to confluency, and used for experiments. The experimental period is determined according to the aim of experiment.
# (§2) Cytotoxicity is measured by the MTT calorimetric method. Cells were seeded at densities of 5,000-10,000 cells/well in 96-well tissue culture plates. On day two, cells are treated with test compounds for another 72 hrs. After drug treatment, attached cells were incubated with MTT (0.5 mg/mL) for 1 hr and subsequently solubilized in DMSO. The absorbency at 550 nm is then measured using a microplate reader. The IC50 is the concentration of agent that reduces the cell viability by 50% under the experimental conditions, and the cytotoxic compound, Doxorubicin, is used as a positive control.
# It is known that both the protoapigenone compound and its derivatives synthesized by a chemical method have cytotoxic effect against cancer cells, similar to nature protoapigenone compound extracted from a plant.
# HepG2 = test: MTT cytotoxicity assay, HepG2; assay type: cell-based, Human; conditions: for IC50 HepG2: human liver cancer cells, MTT, 72 hrs treatment
# Procedure: as §1, §2
# MDA-MB-231 = test: MTT cytotoxicity assay, MDA-MB-231; assay type: cell-based; conditions: human breast cancer cells, 72 hrs treatment
# Procedure: as §1, §2
# A549 = test: MTT cytotoxicity assay, A549; assay type: cell-based; conditions: human lung cancer cells, 72 hrs treatment
# Procedure: as §1, §2
# MCF-7 = test: MTT cytotoxicity assay, MCF-7; assay type: cell-based; conditions: human breast cancer cells, 72 hrs treatment
# Procedure: as §1, §2
# Hep3B = test: MTT cytotoxicity assay, Hep3B; assay type: cell-based; conditions: human liver cancer cells, 72 hrs treatment
# Procedure: as §1, §2
# [1] = tested on: human cancer cell lines (MCF-7, MDA-MB-231, Hep G2, Hep 3B, A549); conditions: compound derived from Thelypteris torresiana; Planta Medica 71:867-870, 2005; cited from earlier work
smiles,measurement,setting,value
"O=C1C=CC(O)(c2cc(=O)c3ccccc3o2)C=C1 [Compound 8a, 2-(1-hydroxy-4-oxocyclohexa-2,5-dienyl)-4H-chromen-4-one]",cytotoxic activity against cancer cell lines (in words),human cancer cell lines,significant cytotoxic activity
"COC1(c2cc(=O)c3ccccc3o2)C=CC(=O)C=C1 [Compound 8b, 1′-methoxyprotoflavonoen]",IC50 HepG2,HepG2,10.95 µg/mL
same,IC50 MDA-MB-231,MDA-MB-231,1.47 µg/mL
same,IC50 A549,A549,>20 µg/mL
same,IC50 MCF-7,MCF-7,2.14 µg/mL
same,IC50 Hep3B,Hep3B,1.45 µg/mL
"O=C1C=CC(O)(c2cc(=O)c3c(O)cccc3o2)C=C1 [Compound 10a, 2-(1-hydroxy-4-oxocyclohexa-2,5-dienyl)-5-hydroxy-4H-chromen-4-one]",cytotoxic activity against cancer cell lines (in words),human cancer cell lines,significant cytotoxic activity
"COC1(c2cc(=O)c3c(C)cccc3o2)C=CC(=O)C=C1 [Compound 10b, 1′-methoxy-5-methylprotoflavonone]",IC50 HepG2,HepG2,7.64 µg/mL
same,IC50 MDA-MB-231,MDA-MB-231,0.54 µg/mL
same,IC50 A549,A549,16.36 µg/mL
same,IC50 MCF-7,MCF-7,1.55 µg/mL
same,IC50 Hep3B,Hep3B,0.66 µg/mL
"O=C1C=CC(O)(c2cc(=O)c3c(ccc4ccccc43)o2)C=C1 [Compound 15a, 3-(1-hydroxy-4-oxocyclohexa-2,5-dienyl)-1H-benzo[f]chromen-1-one]",cytotoxic activity against cancer cell lines (in words),human cancer cell lines,significant cytotoxic activity
"COc1cc(O)c2c(=O)cc(C3(O)C=CC(=O)C=C3)oc2c1 [Compound 18a, 5-hydroxy-2-(1-hydroxy-4-oxocyclohexa-2,5-dienyl)-7-methoxy-4H-chromen-4-one]",activity against the HepG2 human liver cancer cell line (in words),HepG2; compared with most analogs,significantly enhanced activity
same,cytotoxic activity against cancer cell lines (in words),human cancer cell lines,significant cytotoxic activity
same,"potency against all five cancer cell lines, among the derivatives (in words)",human cancer cell lines; five cancer cell lines,highest potency
O=C1C=CC(O)(c2cc(=O)c3c(O)cc(O)cc3o2)C=C1 [protoapigenone],cytotoxic activities to human cancer cell lines (in words),[1],strong cytotoxic activities
